Drawing on patent US7829589B2, “Sulfonamide compounds and uses thereof” (Elixir Pharmaceuticals, Inc., priority 2005, dated 2010), this text covers Ki for 29 compounds.

pKi: −log10 of the molar value.

The target in this assay is GHS-R (Homo sapiens, UniProt Q92847). Kind of assay: GHS-R antagonist activity (Ki) in a cell based assay. As to the method: Cell-Based Activity Assays. For example, the ability of the compound to modulate accumulation of a second messenger signaling component downstream of GHS-R can be evaluated. For example, inositol phosphates (IP), as a result of Gq signaling in a mammalian cell, e.g., a Cos-7 cells. Other tissue culture cells, Xenopus oocytes, and primary cells can also be used.
Chain of GHS-R (Q92847 whole entry, species assumed): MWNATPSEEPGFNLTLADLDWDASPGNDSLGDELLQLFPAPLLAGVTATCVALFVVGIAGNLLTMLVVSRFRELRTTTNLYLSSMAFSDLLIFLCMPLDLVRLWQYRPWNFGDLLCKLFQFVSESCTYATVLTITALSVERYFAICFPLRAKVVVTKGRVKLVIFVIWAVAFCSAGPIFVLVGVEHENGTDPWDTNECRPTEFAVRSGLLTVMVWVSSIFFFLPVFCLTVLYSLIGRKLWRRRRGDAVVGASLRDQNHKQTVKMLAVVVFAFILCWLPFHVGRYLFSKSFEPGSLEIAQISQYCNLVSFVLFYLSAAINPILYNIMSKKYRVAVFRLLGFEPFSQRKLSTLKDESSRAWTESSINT
Phosphatidylinositol turnover assay. One day after transfection COS-7 cells are incubated for 24 hours with 5 μCi of [^3H]-myo-inositol in 1 ml medium supplemented with 10% fetal calf serum, 2 mM glutamine and 0.01 mg/ml gentamicin per well. Cells are then washed twice in buffer, 20 mM HEPES, pH 7.4, supplemented with 140 mM NaCl, 5 mM KCl, 1 mM MgSO4, 1 mM CaCl2, 10 mM glucose, 0.05% (w/v) bovine serum; and incubated in 0.5 ml buffer supplemented with 10 mM LiCl at 37° C. for 30 min. For some assays, it is also useful to incubate the cells with adenosine deaminase ADA (200 U/mg, Boehringer Mannheim, Germany) for 30 min in a concentration of 1 U/ml.
After incubation with the compound of interest for 45 min at 37° C., cells are extracted with 10% ice-cold perchloric acid and placed on ice for 30 min. The resulting supernatants are neutralized with KOH in HEPES buffer, and [^3H]-inositol phosphate is purified on Bio-Rad AG 1-X8 anion exchange resin as described. Assays can be run in duplicate, triplicate, etc. […]
Turning to “3-Diethylamino-propane-1-sulfonic acid {(R)-1-[3-(5-bromo-pyridin-3-yl)-[1,2,4]oxadiazol-5-yl]-phenyl-propyl}-amide [Compound 103]”, the pKi is 6.30 to 7.00.
For `CCN(CC)CCCS(=O)(=O)N[C@H](COCc1ccccc1)c1nc(-c2ccccc2)no1` [Compound 1, 3-Diethylamino-propane-1-sulfonic acid [(R)-2-benzyloxy-1-(3-phenyl-[1,2,4]oxadiazol-5-yl)-ethyl]-amide] the value was 6.00 to 6.30; for `CCN(CC)CCCS(=O)(=O)N[C@H](COCc1ccccc1)c1nc(-c2c(Cl)cccc2Cl)no1` [Compound 2, 3-Diethylamino-propane-1-sulfonic acid {(R)-2-benzyloxy-1-[3-(2,6-dichloro-phenyl)-[1,2,4]oxadiazol-5-yl]-ethyl}-amide], above 7.00; for `CCN(CC)CCCS(=O)(=O)N[C@H](CCc1ccccc1)c1nc(-c2cccc(Cl)c2Cl)n[nH]1` [Compound 3, 3-Diethylamino-propane-1-sulfonic acid {(R)-1-[5-(2,3-dichloro-phenyl)-2H-[1,2,4]triazol-3-yl]-3-phenyl-propyl}-amide], above 7.00.
On to `CCN(CC)CCCS(=O)(=O)N[C@H](CCc1ccccc1)c1nc(-c2ccccc2C)no1` [Compound 4, 3-Diethylamino-propane-1-sulfonic acid [(R)-3-phenyl-1-(3-o-tolyl-[1,2,4]oxadiazol-5-yl)-propyl]-amide], for which the pKi is above 7.00.
Take `CCN(CC)CCCS(=O)(=O)N[C@H](CCc1ccccc1)c1nc(Cc2ccc(F)cc2)n[nH]1` [Compound 5, 3-Diethylamino-propane-1-sulfonic acid {(R)-1-[5-(4-fluoro-benzyl)-2H-[1,2,4]triazol-3-yl]-3-phenyl-propyl}-amide]: the pKi is above 7.00.
For `CCN(CC)CCCS(=O)(=O)N[C@H](CCc1ccccc1)c1nc(-c2ccccc2)no1` [Compound 6, 3-Diethylamino-propane-1-sulfonic acid [(R)-3-phenyl-1-(3-phenyl-[1,2,4]oxadiazol-5-yl)-propyl]-amide] the value was above 7.00; for `CCN(CC)CCCS(=O)(=O)N[C@H](CCc1ccccc1)c1nc(-c2ccsc2)n[nH]1` [Compound 7, 3-Diethylamino-propane-1 sulfonic acid [(R)-3-phenyl-1-(5-thiophen-3-yl-2H-[1,2,4]triazol-3-yl)-propyl]-amide], above 7.00.
Under `CCN(CC)CCCS(=O)(=O)N[C@H](CCc1ccccc1)c1nc(-c2c(F)cc(F)cc2F)n[nH]1` [Compound 8, 3-Diethylamino-propane-1-sulfonic acid {(R)-3-phenyl-1-[5-(2,4,6-trifluoro-phenyl)-2H-[1,2,4]triazol-3-yl]-propyl}-amide] stands above 7.00; under `CCN(CC)CCCS(=O)(=O)N[C@H](CCc1ccccc1)c1nc(-c2ncccc2C)no1` [Compound 9, 3-Diethylamino-propane-1-sulfonic acid {(R)-1-[3-(3-methyl-pyridin-2-yl)-[1,2,4]oxadiazol-5-yl]-3-phenyl-propyl}-amide], 6.30 to 7.00.
For `CCN(CC)CCCS(=O)(=O)N[C@H](CCc1ccccc1)c1nc(-c2c(C)cccc2Cl)no1` [Compound 10, 3-Diethylamino-propane-1-sulfonic acid {(R)-1-[3-(2-chloro-6-methyl-phenyl)-[1,2,4]oxadiazol-5-yl]-3-phenyl-propyl}-amide] the value was 6.30 to 7.00.
`CCN(CC)CCCS(=O)(=O)N[C@H](CCc1ccccc1)c1nc(-c2ccc3c(c2)OCO3)n[nH]1` [Compound 11, 3-Diethylamino-propane-1-sulfonic acid [(R)-1-(5-benzo[1,3]dioxol-5-yl-2H-[1,2,4]triazol-3-yl)-3-phenyl-propyl]-amide] showed a pKi above 7.00.
Regarding `CCN(CC)CCCS(=O)(=O)N[C@H](CCc1ccccc1)c1nc(-c2c(Cl)cccc2Cl)no1` [Compound 12, 3-Diethylamino-propane-1-sulfonic acid {(R)-1-[3-(2,6-dichloro-phenyl)-[1,2,4]oxadiazol-5-yl]-3-phenyl-propyl}-amide], the pKi is above 7.00.
For `CCN(CC)CCS(=O)(=O)N[C@H](CCc1ccccc1)c1nc(-c2ccccc2C)no1` [Compound 13, 2-Diethylamino-ethanesulfonic acid [(R)-3-phenyl-1-(3-o-tolyl-[1,2,4]oxadiazol-5-yl)-propyl]-amide] the value was 6.00 to 6.30; for `CCN(CC)CCS(=O)(=O)N[C@H](CCc1ccccc1)c1nc(-c2ncccc2C)no1` [Compound 14, 2-Diethylamino-ethanesulfonic acid {(R)-1-[3-(3-methyl-pyridin-2-yl)-[1,2,4]oxadiazol-5-yl]-3-phenyl-propyl}-amide], 6.30 to 7.00; for `CCN(CC)CCCS(=O)(=O)N[C@H](CCc1ccccc1)c1nc(-c2cccc(F)c2)n[nH]1` [Compound 15, 3-Diethylamino-propane-1-sulfonic acid {(R)-1-[5-(3-fluoro-phenyl)-2H-[1,2,4]triazol-3-yl]-3-phenyl-propyl}-amide], above 7.00.
For `CCN(CC)CCCS(=O)(=O)N[C@H](CCc1ccccc1)c1nc(-c2ccccc2OC)no1` [Compound 16, 3-Diethylamino-propane-1-sulfonic acid {(R)-1-[3-(2-methoxy-phenyl)-[1,2,4]oxadiazol-5-yl]-3-phenyl-propyl}-amide], the pKi was 6.00 to 6.30.
Under `CCN(CC)CCS(=O)(=O)N[C@H](CCc1ccccc1)c1nc(-c2ccccc2)no1` [Compound 17, 2-Diethylamino-ethanesulfonic acid [(R)-3-phenyl-1-(3-phenyl-[1,2,4]oxadiazol-5-yl)-propyl]-amide] stands 6.30 to 7.00; under `CCN(CC)CCS(=O)(=O)N[C@H](CCc1ccccc1)c1nc(-c2c(Cl)cccc2Cl)no1` [Compound 18, 2-Diethylamino-ethanesulfonic acid {(R)-1-[3-(2,6-dichloro-phenyl)-[1,2,4]oxadiazol-5-yl]-3-phenyl-propyl}-amide], 6.30 to 7.00; under `CCN(CC)CCS(=O)(=O)N[C@H](CCc1ccccc1)c1nc(-c2ccccc2OC)no1` [Compound 19, 2-Diethylamino-ethanesulfonic acid {(R)-1-[3-(2-methoxy-phenyl)-[1,2,4]oxadiazol-5-yl]-3-phenyl-propyl}-amide], at most 6.00.
With `CCN(CC)CCCS(=O)(=O)N[C@H](CCc1ccccc1)c1nc(-c2ccc3[nH]ccc3c2)n[nH]1` [Compound 20, 3-Diethylamino-propane-1-sulfonic acid {(R)-1-[5-(1H-indol-5-yl)-2H-{1,2,4]triazol-3-yl]-3-phenyl-propyl}-amide], the pKi is above 7.00.
Under `CCN(CC)CCCS(=O)(=O)N[C@@H](CCc1ccccc1)c1nc(-c2ccccc2C)no1` [Compound 21, 3-Diethylamino-propane-1-sulfonic acid [(S)-3-phenyl-1-(3-o-tolyl-[1,2,4]oxadiazol-5-yl)-propyl]-amide] stands 6.30 to 7.00; under `CCN(CC)CCCS(=O)(=O)N[C@H](CCc1ccccc1)c1nc(-c2ccc(Cl)cc2)n[nH]1` [Compound 22, 3-Diethylamino-propane-1-sulfonic acid {(R)-1-[5-(4-chloro-phenyl)-2H-[1,2,4]triazol-3-yl]-3-phenyl-propyl}-amide], above 7.00.
`CCN(CC)CCCS(=O)(=O)N[C@H](CCc1ccccc1)c1nc(-c2ccccc2)n[nH]1` [Compound 23, 3-Diethylamino-propane-1-sulfonic acid [(R)-3-phenyl-1-(5-phenyl-2H-[1,2,4]triazol-3-yl)-propyl]-amide] had a pKi above 7.00.
Under `CCN(CC)CCCS(=O)(=O)N[C@H](CCc1ccccc1)c1nc(Cc2ccc(Cl)cc2)n[nH]1` [Compound 24, 3-Diethylamino-propane-1-sulfonic acid {(R)-1-[5-(4-chloro-benzyl)-2H-[1,2,4]triazol-3-yl]-3-phenyl-propyl}-amide] stands above 7.00; under `CCN(CC)CCCS(=O)(=O)N[C@H](COCc1ccccc1)c1nc(-c2ccccc2)n[nH]1` [Compound 25, 3-Diethylamino-propane-1-sulfonic acid [(S)-2-benzyloxy-1-(5-phenyl-2H-[1,2,4]triazol-3-yl)-ethyl]-amide], 6.30 to 7.00.
Under `CCN(CC)CCS(=O)(=O)N[C@H](CCc1ccccc1)c1nc(-c2ccccn2)no1` [Compound 27, 2-Diethylamino-ethanesulfonic acid [(R)-3-phenyl-1-(3-pyridin-2-yl-[1,2,4]oxadiazol-5-yl)-propyl]-amide] stands 6.30 to 7.00.
In the case of `CCN(CC)CCS(=O)(=O)N[C@H](CCc1ccccc1)c1nc(-c2ccccc2)n[nH]1` [Compound 28, 2-Diethylamino-ethanesulfonic acid [(R)-3-phenyl-1-(5-phenyl-2H-[1,2,4]triazol-3-yl)-propyl]-amide], the pKi was above 7.00.
For `CCN(CC)CCCS(=O)(=O)N[C@H](CCc1ccccc1)c1nc(-c2ccccc2F)n[nH]1` [Compound 29, 3-Diethylamino-propane-1-sulfonic acid {(R)-1-[5-(2-fluoro-phenyl)-2H-[1,2,4]triazol-3-yl]-3-phenyl-propyl}-amide] the value was above 7.00.

The pKi is the negative decadic logarithm of the Ki, by convention in mol/L. High values mean a low Ki, low ones a high Ki.
